pIC50: −log10 of the molar value.
target: CB1 (CNR1) (Homo sapiens, UniProt P21554); assay: cAMP CNR1 Hunter cell line antagonist assay (CB1 assay); type: cell-based; conditions: antagonist mode, cAMP CNR1 Hunter cells, EC80 agonist; read-out: CB1 assay, Efficacy (IC50)
Method: cAMP CNR1 Hunter cell line (Eurofins DiscoveryX) were expanded from freezer stocks and seeded in a total volume of 20 μL into white walled, 384-well microplates and incubated at 37° C. for the appropriate time prior to testing. For antagonist determination, cell media was aspirated from cells and replaced with 10 μL 1:1 HBSS/Hepes:cAMP XS+Ab reagent. 5 μL of 4× compound was added to the cells and incubated at 37° C. for 30 minutes. 5 μL of 4× EC80 agonist was added to cells and incubated at 37° C. for 30 minutes. After appropriate compound incubation, assay signal was generated through incubation with 20 μL cAMP XS+ED/CL lysis cocktail for one hour followed by incubation with 20 μL cAMP XS+EA reagent for three hours at room temperature. Microplates were read following signal generation with a PerkinElmer Envision™ instrument for chemiluminescent signal detection. Compound activity (IC50) was analyzed using CBIS data analysis suite (ChemInnovation, CA).

Sequence of CB1 (CNR1) (P21554 whole entry): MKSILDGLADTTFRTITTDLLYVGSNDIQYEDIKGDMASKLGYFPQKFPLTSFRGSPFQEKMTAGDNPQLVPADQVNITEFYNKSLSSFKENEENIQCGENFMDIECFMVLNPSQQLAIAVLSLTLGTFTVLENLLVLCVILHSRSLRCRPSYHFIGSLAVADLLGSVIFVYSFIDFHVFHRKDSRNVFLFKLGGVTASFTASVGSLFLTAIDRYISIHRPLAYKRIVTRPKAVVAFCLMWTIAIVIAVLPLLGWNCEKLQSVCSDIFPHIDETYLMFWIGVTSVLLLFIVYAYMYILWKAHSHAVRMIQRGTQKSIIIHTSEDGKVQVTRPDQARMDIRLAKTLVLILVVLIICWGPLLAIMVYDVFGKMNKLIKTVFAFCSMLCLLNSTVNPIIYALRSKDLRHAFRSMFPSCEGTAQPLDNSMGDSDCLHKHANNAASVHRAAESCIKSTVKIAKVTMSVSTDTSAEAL

SMILES | pIC50
CCS(=O)(=O)c1cc2c(c(S(=O)(=O)Nc3ccc(C)c(Cl)c3)c1)OCC(=O)N2 [BC19544] | ≤ 4.60
CCS(=O)(=O)c1cc2c(c(S(=O)(=O)Nc3ccc(F)cc3F)c1)OCC(=O)N2 [BC19545] | ≤ 4.60
CCS(=O)(=O)c1cc2c(c(S(=O)(=O)Nc3ccc(C)cc3)c1)OCC(=O)N2 [BC19546] | ≤ 4.60
CCS(=O)(=O)c1cc2c(c(S(=O)(=O)Nc3ccc(OC)c(Cl)c3)c1)OCC(=O)N2 [BC19547] | ≤ 4.60
CCS(=O)(=O)c1cc2c(c(S(=O)(=O)Nc3ccc(C#N)cc3)c1)OCC(=O)N2 [BC19548] | ≤ 4.60
O=C1NCCOc2c1cc(Br)cc2S(=O)(=O)Nc1ccc(F)cc1 [BC19549] | ≤ 4.60
O=C1NCCOc2c1cc(Br)cc2S(=O)(=O)Nc1ccc(OC(F)(F)F)cc1 [BC19550] | ≤ 4.60
O=C1NCCOc2c1cc(Br)cc2S(=O)(=O)Nc1ccc(F)c(F)c1 [BC19551] | ≤ 4.60
Cc1ccc(NS(=O)(=O)c2cc(Br)cc3c2OCCNC3=O)cc1F [BC19552] | ≤ 4.60
O=C1NCCOc2c1cc(Br)cc2S(=O)(=O)Nc1ccccc1 [BC19553] | ≤ 4.60
O=C1NCCOc2c1cc(Br)cc2S(=O)(=O)Nc1ccc(Cl)cc1 [BC19603] | ≤ 4.60
CC(C)c1ccc(NS(=O)(=O)c2cc(Br)cc3c2OCCNC3=O)cc1 [BC19605] | ≤ 4.60
COc1ccc(NS(=O)(=O)c2cc(Br)cc3c2OCCNC3=O)cc1 [BC19606] | ≤ 4.60
O=C1NCCOc2c1cc(Br)cc2S(=O)(=O)Nc1ccc(F)cc1F [BC19608] | ≤ 4.60
O=C1NCCOc2c1cc(Br)cc2S(=O)(=O)Nc1cccc(Cl)c1 [BC19611] | ≤ 4.60
Cc1ccc(NS(=O)(=O)c2cc(Br)cc3c2OCCNC3=O)cc1 [BC19612] | ≤ 4.60
O=C1NCCOc2c1cc(Br)cc2S(=O)(=O)Nc1ccc(F)cc1Cl [BC19613] | ≤ 4.60
COc1ccc(NS(=O)(=O)c2cc(Br)cc3c2OCCNC3=O)cc1Cl [BC19614] | ≤ 4.60

SMILES | pIC50
N#Cc1ccc(NS(=O)(=O)c2cc(Br)cc3c2OCCNC3=O)cc1 [BC19615] | ≤ 4.60
O=C1CCOc2c(cc(Br)cc2S(=O)(=O)Nc2ccc(OC(F)(F)F)cc2)N1 [BC19648] | ≤ 4.60
O=C1CCOc2c(cc(Br)cc2S(=O)(=O)Nc2cccc(F)c2)N1 [BC19649] | ≤ 4.60
O=C1CCOc2c(cc(Br)cc2S(=O)(=O)Nc2cccc(Cl)c2)N1 [BC19650] | ≤ 4.60
Cc1ccc(NS(=O)(=O)c2cc(Br)cc3c2OCCC(=O)N3)cc1Cl [BC19651] | ≤ 4.60
O=C1CCOc2cc(S(=O)(=O)Nc3ccc(OC(F)(F)F)cc3)c(Br)cc2N1 [BC19652] | ≤ 4.60
Cc1ccc(NS(=O)(=O)c2cc3c(cc2Br)NC(=O)CCO3)cc1F [BC19653] | ≤ 4.60
O=C1CCOc2cc(S(=O)(=O)Nc3cccc(F)c3)c(Br)cc2N1 [BC19654] | ≤ 4.60
O=C1CCOc2cc(S(=O)(=O)Nc3cccc(Cl)c3)c(Br)cc2N1 [BC19655] | ≤ 4.60
O=C1CCOc2cc(S(=O)(=O)Nc3ccc(Cl)cc3)c(Br)cc2N1 [BC19656] | ≤ 4.60
CCc1cccc(NS(=O)(=O)c2cc3c(cc2Br)NC(=O)CCO3)c1 [BC19657] | ≤ 4.60
O=C1CCOc2cc(S(=O)(=O)Nc3ccc(F)cc3Cl)c(Br)cc2N1 [BC19658] | ≤ 4.60
Cc1ccc(NS(=O)(=O)c2cc3c(cc2Br)NC(=O)CCO3)cc1Cl [BC19659] | ≤ 4.60
O=C1CCOc2cc(S(=O)(=O)Nc3ccc(F)cc3)c(Br)cc2N1 [BC19660] | ≤ 4.60
O=C1CCOc2c(cc(Br)cc2S(=O)(=O)Nc2ccc(Cl)cc2)N1 [BC19685] | ≤ 4.60
CC(C)c1ccc(NS(=O)(=O)c2cc(Br)cc3c2OCCC(=O)N3)cc1 [BC19687] | ≤ 4.60
O=C1CCOc2cc(S(=O)(=O)Nc3ccccc3)c(Br)cc2N1 [BC19689] | ≤ 4.60
N#Cc1ccc(NS(=O)(=O)c2cc3c(cc2Br)NC(=O)CCO3)cc1 [BC19695] | ≤ 4.60

Further lines, results first:

pIC50 | SMILES
≤ 4.60 | CCS(=O)(=O)c1cc2c(c(S(=O)(=O)Nc3ccc(F)c(F)c3)c1)OCC(=O)N2 [BC19421]
≤ 4.60 | CS(=O)(=O)c1cc2c(c(S(=O)(=O)Nc3ccc(OC(F)(F)F)cc3)c1)OCC(=O)N2 [BC19422]
≤ 4.60 | Cc1ccc(NS(=O)(=O)c2cc(S(C)(=O)=O)cc3c2OCC(=O)N3)cc1F [BC19423]
≤ 4.60 | CC(C)c1ccc(NS(=O)(=O)c2cc(S(C)(=O)=O)cc3c2OCC(=O)N3)cc1 [BC19424]
≤ 4.60 | CS(=O)(=O)c1cc2c(c(S(=O)(=O)Nc3ccc(F)cc3F)c1)OCC(=O)N2 [BC19425]
≤ 4.60 | CS(=O)(=O)c1cc2c(c(S(=O)(=O)Nc3cccc(F)c3)c1)OCC(=O)N2 [BC19426]
≤ 4.60 | CS(=O)(=O)c1cc2c(c(S(=O)(=O)Nc3cccc(Cl)c3)c1)OCC(=O)N2 [BC19427]
≤ 4.60 | CS(=O)(=O)c1cc2c(c(S(=O)(=O)Nc3ccc(F)cc3Cl)c1)OCC(=O)N2 [BC19428]
≤ 4.60 | COc1ccc(NS(=O)(=O)c2cc(S(C)(=O)=O)cc3c2OCC(=O)N3)cc1Cl [BC19429]
≤ 4.60 | CS(=O)(=O)c1cc2c(c(S(=O)(=O)Nc3ccc(F)cc3)c1)OCC(=O)N2 [BC19430]
≤ 4.60 | CS(=O)(=O)c1cc2c(c(S(=O)(=O)Nc3ccc(C#N)cc3)c1)OCC(=O)N2 [BC19431]
≤ 4.60 | Cc1ccc(NS(=O)(=O)c2c(C)c(Cl)cc3c2OCC(=O)N3)cc1 [BC19432]
≤ 4.60 | Cc1ccc(NS(=O)(=O)c2c(C)c(Cl)cc3c2OCC(=O)N3)cc1Cl [BC19433]
≤ 4.60 | Cc1c(Cl)cc2c(c1S(=O)(=O)Nc1ccc(Cl)cc1)OCC(=O)N2 [BC19434]
≤ 4.60 | CCS(=O)(=O)c1cc2c(c(S(=O)(=O)Nc3ccc(OC(F)(F)F)cc3)c1)OCC(=O)N2 [BC19435]
≤ 4.60 | CCS(=O)(=O)c1cc2c(c(S(=O)(=O)Nc3ccc(C)c(F)c3)c1)OCC(=O)N2 [BC19436]
≤ 4.60 | CCS(=O)(=O)c1cc2c(c(S(=O)(=O)Nc3ccccc3)c1)OCC(=O)N2 [BC19437]
≤ 4.60 | CCS(=O)(=O)c1cc2c(c(S(=O)(=O)Nc3ccc(OC)cc3)c1)OCC(=O)N2 [BC19438]
≤ 4.60 | CCc1cccc(NS(=O)(=O)c2cc(S(=O)(=O)CC)cc3c2OCC(=O)N3)c1 [BC19439]
≤ 4.60 | CCS(=O)(=O)c1cc2c(c(S(=O)(=O)Nc3cccc(F)c3)c1)OCC(=O)N2 [BC19440]
≤ 4.60 | CCS(=O)(=O)c1cc2c(c(S(=O)(=O)Nc3cccc(Cl)c3)c1)OCC(=O)N2 [BC19441]
≤ 4.60 | CCS(=O)(=O)c1cc2c(c(S(=O)(=O)Nc3ccc(F)cc3Cl)c1)OCC(=O)N2 [BC19442]
≤ 4.60 | CCS(=O)(=O)c1cc2c(c(S(=O)(=O)Nc3ccc(F)cc3)c1)OCC(=O)N2 [BC19443]
≤ 4.60 | CS(=O)(=O)c1cc2c(c(S(=O)(=O)Nc3ccc(F)c(F)c3)c1)OCC(=O)N2 [BC19481]

pIC50 | SMILES
≤ 4.60 | CS(=O)(=O)c1cc2c(c(S(=O)(=O)Nc3ccccc3)c1)OCC(=O)N2 [BC19482]
≤ 4.60 | CS(=O)(=O)c1cc2c(c(S(=O)(=O)Nc3ccc(Cl)cc3)c1)OCC(=O)N2 [BC19483]
≤ 4.60 | CCc1ccc(NS(=O)(=O)c2cc(S(C)(=O)=O)cc3c2OCC(=O)N3)cc1 [BC19484]
≤ 4.60 | COc1ccc(NS(=O)(=O)c2cc(S(C)(=O)=O)cc3c2OCC(=O)N3)cc1 [BC19485]
≤ 4.60 | Cc1ccc(NS(=O)(=O)c2cc(S(C)(=O)=O)cc3c2OCC(=O)N3)cc1Cl [BC19486]
≤ 4.60 | CCc1cccc(NS(=O)(=O)c2cc(S(C)(=O)=O)cc3c2OCC(=O)N3)c1 [BC19487]
≤ 4.60 | Cc1ccc(NS(=O)(=O)c2cc(S(C)(=O)=O)cc3c2OCC(=O)N3)cc1 [BC19488]
≤ 4.60 | Cc1c(Cl)cc2c(c1S(=O)(=O)Nc1ccc(F)c(F)c1)OCC(=O)N2 [BC19489]
≤ 4.60 | Cc1c(Cl)cc2c(c1S(=O)(=O)Nc1ccc(OC(F)(F)F)cc1)OCC(=O)N2 [BC19490]
≤ 4.60 | CCS(=O)(=O)c1cc2c(c(S(=O)(=O)Nc3ccc(Cl)cc3)c1)OCC(=O)N2 [BC19491]
≤ 4.60 | CCc1ccc(NS(=O)(=O)c2cc(S(=O)(=O)CC)cc3c2OCC(=O)N3)cc1 [BC19492]
≤ 4.60 | CCS(=O)(=O)c1cc2c(c(S(=O)(=O)Nc3ccc(C(C)C)cc3)c1)OCC(=O)N2 [BC19493]
4.60 to 6.00 | CCc1ccc(NS(=O)(=O)c2cc(Br)cc3c2OCCNC3=O)cc1 [BC19604]
4.60 to 6.00 | Cc1ccc(NS(=O)(=O)c2cc(Br)cc3c2OCCNC3=O)cc1Cl [BC19607]
4.60 to 6.00 | CCc1cccc(NS(=O)(=O)c2cc(Br)cc3c2OCCNC3=O)c1 [BC19609]
4.60 to 6.00 | O=C1NCCOc2c1cc(Br)cc2S(=O)(=O)Nc1cccc(F)c1 [BC19610]
> 6.00 | Cc1ccc(NS(=O)(=O)c2cc3c(cc2Br)NC(=O)CCO3)cc1 [BC19661]
4.60 to 6.00 | CCc1ccc(NS(=O)(=O)c2cc(Br)cc3c2OCCC(=O)N3)cc1 [BC19686]
4.60 to 6.00 | COc1ccc(NS(=O)(=O)c2cc(Br)cc3c2OCCC(=O)N3)cc1Cl [BC19688]
> 6.00 | CCc1ccc(NS(=O)(=O)c2cc3c(cc2Br)NC(=O)CCO3)cc1 [BC19690]
4.60 to 6.00 | CC(C)c1ccc(NS(=O)(=O)c2cc3c(cc2Br)NC(=O)CCO3)cc1 [BC19691]
> 6.00 | COc1ccc(NS(=O)(=O)c2cc3c(cc2Br)NC(=O)CCO3)cc1 [BC19692]
4.60 to 6.00 | O=C1CCOc2cc(S(=O)(=O)Nc3ccc(F)cc3F)c(Br)cc2N1 [BC19693]
4.60 to 6.00 | COc1ccc(NS(=O)(=O)c2cc3c(cc2Br)NC(=O)CCO3)cc1Cl [BC19694]

— US20240000806A1, “METHODS AND MATERIALS FOR INHIBITING CB1 ACTIVITY” (University of Pittsburgh - Of the Commonwealth System of …, priority 2020, published 2024)
